In article PMC5071873, “The Effects of Puerarin on Rat Ventricular Myocytes and the Potential Mechanism” (Scientific Reports, 2016):

Columns and labels:
[1] = target: T1, Kir2.1 (Homo sapiens, UniProt P63252); test: Whole-cell patch clamp of Kir2.1 currents (ramp voltage protocol) in transfected HEK293 cells; type: cell-based
T1 construct: expressed in transfected cells; host or cells: HEK293
T1 sequence (P63252 1-427): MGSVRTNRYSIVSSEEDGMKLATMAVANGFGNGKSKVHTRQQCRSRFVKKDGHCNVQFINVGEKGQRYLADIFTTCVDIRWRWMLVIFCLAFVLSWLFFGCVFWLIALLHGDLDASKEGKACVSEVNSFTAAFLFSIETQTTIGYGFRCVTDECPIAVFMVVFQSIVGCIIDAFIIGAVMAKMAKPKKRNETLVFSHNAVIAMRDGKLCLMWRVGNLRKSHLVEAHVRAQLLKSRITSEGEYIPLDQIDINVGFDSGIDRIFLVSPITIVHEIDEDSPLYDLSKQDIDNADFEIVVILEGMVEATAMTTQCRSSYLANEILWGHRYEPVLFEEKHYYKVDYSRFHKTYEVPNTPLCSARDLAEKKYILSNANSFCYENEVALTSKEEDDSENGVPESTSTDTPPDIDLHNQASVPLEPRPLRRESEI
Description: The Tyrode’s solution contained (mM): 126 NaCl, 5.4 KCl, 1.8 CaCl2, 1 MgCl2, 0.33 NaH2PO4, 10 HEPES and 10 glucose, pH 7.4 (adjusted with NaOH). The Ca^2+-free Tyrode’s solution was prepared by removing CaCl2 from the Tyrode’s solution. The Kreb’s solution used for cell storage contained (mM): 70 glutamic acid, 30 KCl, 15 taurine, 0.5 MgCl2, 10 KH2PO4, 0.5 EGTA, 10 HEPES, 10 glucose, and 1% albumin, pH 7.4 (adjusted with KOH). The enzyme solution used for the rat cardiomyocyte isolation contained 0.08 g/L collagenase (type II) and 1.0 g/L BSA in Kreb’s solution. For action potential recording on cardiomyocyte, the pipette solution contained (mM): 100 potassium aspartate, 30 KCl, 1 MgCl2, 5 Mg-ATP, 5 EGTA, 5 HEPES, pH 7.3 (adjusted with KOH); the Tyrode’s solution was used as the standard bath solution. For whole-cell recording of IKs on myocytes, the pipette solution contained (mM): 125 potassium aspartate, 20 KCl, 1 MgCl2, 5 Mg-ATP, 10 EGTA, 5 HEPES, pH 7.3 (adjusted with KOH); the bath solution contained (mM): 132 NaCl, 4 KCl, 1.8 CaCl2, 1.2 MgCl2, 10 HEPES, 5 glucose, pH 7.4 (adjusted with NaOH). 3 μM nifedipine and 5 μM E-4031 were used to block the calcium current and IKr, respectively. For whole-cell recording on HEK-293 cells, the pipette solution contained (mM): 140 KCl, 2 MgCl2, 10 HEPES, 0.1 EGTA, 4 K2-ATP, pH 7.3 (adjusted with KOH); the bath solution contained (mM): 120 NaCl, 5 KCl, 1.5 CaCl2, 1 MgCl2, 10 HEPES, 10 glucose, pH 7.4 (adjusted with NaOH). For single-channel recording, the pipette solution (extracellular) contained (mM): 145 KCl, 10 HEPES, 10 glucose, pH 7.4 (adjusted with KOH); the bath solution (intracellular) contained (mM): 145 KCl, 1.2 MgCl2, 10 HEPES, 0.1 EGTA, pH 7.38 (adjusted with KOH).
Cell suspensions were transferred into a chamber on the stage of a Nikon Eclipse Ti inverted microscope (Tokyo, Japan). The whole-cell recordings were performed using isolated single ventricular myocytes. Patch electrodes were pulled from a horizontal microelectrode puller (P-1000, Sutter Instrument Co, USA) and fire polished to final tip resistance of 4.0–8.0 MΩ when filled with internal solutions. Signals were amplified with an Axopatch 200B amplifier (Axon Instruments, USA) and filtered at 1 kHz. The pCLAMP 9.0 software was used to generate current and voltage clamp protocols, acquire data, and analyse the current traces. The whole-cell series resistance was compensated to more than 80%. All of the experiments were performed at room temperature (22 ± 1 °C). The whole-cell IK1 was elicited by a ramp voltage protocol from −140 to + 40 mV in 1 s, or at a 0 mV holding potential to test potentials from −140 to + 40 mV in 10 mV increments. The IK1 was calculated as the difference between the peak inward current and the holding current level. The whole-cell Kv7.1/IKs were elicited from a −30 mV holding potential to test potentials from −80 to + 40 mV in 10 mV increments.
Human Kir2.1 cDNA, Kir2.3 cDNA, Kv7.1 cDNA and KCNE1 cDNA, was cloned in Human Embryonic Kidney 293 cells, respectively. In some cases, Kv7.1 cDNA and KCNE1 cDNA were simultaneously cloned in Human Embryonic Kidney 293 cells.

[2] = tested on: intracellular cAMP; test: Mouse/Rat cAMP assay in rat cardiomyocytes; type: cell-based; conditions: puerarin 1 mM
Description: cAMP levels were measured in rat cardiomyocytes using a Mouse/Rat cAMP kit (cAMP parameter assay kit, R&D Systems) according to the manufacturer’s instructions. The assay is based on the competitive binding technique. A streptavidin-coated plate is incubated with a biotinylated monoclonal antibody specific for cAMP. Following a wash to remove excess monoclonal antibody, cAMP present in a sample competes with a fixed amount of horseradish peroxidase (HRP)-labeled cAMP for sites on the monoclonal antibody. This is followed by another wash to remove excess conjugate and unbound sample. A substrate solution is added to the wells to determine the bound enzyme activity. The color development is stopped and the absorbance is read at 450 nm. The intensity of the color is inversely proportional to the concentration of cAMP in the sample. The level of cAMP in the sample was determined based on a standard curve and expressed as pmol/mg per each sample. Normalized cAMP was calculated by compared with the control group. In our study, we investigate the effect of puerarin on intracellular cAMP concentration and its effect upon the increase of cAMP induced by isoproterenol, forskolin and 8-Br-cAMP.

With O=c1c(-c2ccc(O)cc2)coc2c([C@@H]3O[C@H](CO)[C@@H](O)[C@H](O)[C@H]3O)c(O)ccc12 [Puerarin, 8-c-glucoside of daidzein] the “effect on Kir2.1 currents at low concentrations” value ([1]; 10 μM, 1 mM (so in the source)) was “little effect”, the “saturation dosage, inhibition of Kir2.1” value ([1]; HEK293) was 50 mM and the “maximal inhibitory effect upon Kir2.1” value ([1]; HEK293, n = 5 each point) was 53.11 ± 1.84%. For the same compound, the IC50 ([1]; HEK293, non-linear Hill fit, n = 5 each point, read-out: IC50, inhibition of Kir2.1 currents) was 1.27 mM, the “Hill coefficient, inhibition of Kir2.1” value ([1]; non-linear Hill fit) was 0.990 and the “effect upon the increase of cAMP induced by isoproterenol, forskolin” value ([2]; rat cardiac myocytes) was “no effect”. For the same compound, the “effect on intracellular cAMP concentration” value ([2]; rat cardiac myocytes (text: also HEK293 transfected Kv7.1/IKs)) was “no effect”.
